Peptide text beside a SMILES is read from it.
Assays:
[1] = system: 8H5 binding to H5N1 virus Chicken/HongKong/YU22/2002; design: species or system H5N1 avian influenza virus
[2] = system: chicken serum antibody against H5N1 avian influenza virus; format: binding
[3] = system: 8H5 binding to H5N1 virus Shenzhen/406H/2006; design: species or system H5N1 avian influenza virus
8H5 mAb [4] = format: binding, murine
8H5 mAb [5] = format: binding, murine; conditions: read-out: Kd (dissociation constant for 8H5)

SMILES	Blocking Dose Yu22: amount of peptide that blocks binding of 8H5 to the virus by 50% [1] [µg]	reactivity of the ELISA produced with V-1b fused to HBcAg with chicken serum samples [2]	Blocking Dose SZ/406H: amount of peptide that blocks binding of 8H5 to the virus by 50% [3] [µg]	8H5 titer (Tod1.5): phage dilution yielding an OD value of 1.5 (8H5 mAb [4])	Kd (8H5 mAb [5]) [nM]
CC[C@H](C)[C@H](NC(=O)[C@@H](NC(=O)[C@H](CC(C)C)NC(=O)[C@@H]1CCCN1C(=O)[C@@H](NC(=O)[C@@H](N)CCC(=O)O)[C@@H](C)O)[C@@H](C)O)C(=O)N[C@@H](C)C(=O)NCC(=O)N[C@@H](CC(C)C)C(=O)N[C@@H](CCCCN)C(=O)N[C@@H](CC(C)C)C(=O)N[C@@H](CCCCN)C(=O)O [V-1b] (H-ETPLTIAGLKLK-OH; N-terminus and C-terminus assumed)	5.70	only the H5N1 avian influenza reactive samples were also 8H5 reactive	2.31		
CC[C@H](C)[C@H](NC(=O)[C@@H](NC(=O)[C@H](CC(C)C)NC(=O)[C@H](CCC(=O)O)NC(=O)[C@@H](NC(=O)[C@@H](N)CCC(=O)O)[C@@H](C)O)[C@@H](C)O)C(=O)N[C@@H](C)C(=O)N[C@@H](C)C(=O)N[C@@H](CC(C)C)C(=O)N[C@@H](CCCCN)C(=O)N[C@@H](Cc1ccc(O)cc1)C(=O)N[C@H](C(=O)O)C(C)C [IV-1b] (H-ETELTIAALKYV-OH; N-terminus and C-terminus assumed)	>50		>50		
CC(C)C[C@H](NC(=O)[C@H](C)NC(=O)[C@H](C)NC(=O)[C@@H](NC(=O)[C@@H](NC(=O)[C@H](CC(C)C)NC(=O)[C@@H]1CCCN1C(=O)[C@@H](NC(=O)[C@@H](N)CC(=O)O)[C@@H](C)O)[C@@H](C)O)[C@@H](C)O)C(=O)N[C@@H](CCCNC(=N)N)C(=O)N[C@@H](CC(C)C)C(=O)N[C@H](C(=O)O)C(C)C [p125] (H-DTPLTTAALRLV-OH; N-terminus and C-terminus assumed)	18.34		11.16	2.96	824
CC[C@H](C)[C@H](NC(=O)[C@@H](NC(=O)[C@H](CC(C)C)NC(=O)[C@@H]1CCCN1C(=O)[C@@H](NC(=O)[C@@H](N)CC(=O)O)[C@@H](C)O)[C@@H](C)O)C(=O)N[C@@H](C)C(=O)NCC(=O)N[C@@H](CC(C)C)C(=O)N[C@@H](CCCCN)C(=O)N[C@@H](CC(C)C)C(=O)N[C@H](C(=O)O)C(C)C [II-1c] (H-DTPLTIAGLKLV-OH; N-terminus and C-terminus assumed)	8.90		2.38		
CC(C)C[C@H](NC(=O)[C@H](C)NC(=O)[C@H](CCC(N)=O)NC(=O)[C@H](CCCCN)NC(=O)[C@@H](NC(=O)[C@H](CC(C)C)NC(=O)[C@H](CCC(=O)O)NC(=O)[C@@H](NC(=O)[C@@H](N)CC(=O)O)[C@@H](C)O)[C@@H](C)O)C(=O)N[C@@H](CCCNC(=N)N)C(=O)N[C@@H](CC(C)C)C(=O)N[C@H](C(=O)O)C(C)C [III-2a] (H-DTELTKQALRLV-OH; N-terminus and C-terminus assumed)	15.19		6.10		

— PMC3166295 (PLoS ONE, 2011)
